Eleven compounds from patent US20090227683A1, “Compositions for Providing an Analgesic Effect to the Skin” (priority 2008, published 2009) can be followed below.

Assay [1] deals with Albino male CD-1 mice (neurogenic inflammation induced by Resiniferatoxin). In words: Resiniferatoxin neurogenic inflammation model in the mouse ear (ear edema). It is filed as in vivo. The following applies: for inhibition of the neurogenic inflammatory response to resiniferatoxin, in words: summary of Tables 2 to 4. From the text:
Neurosensory inflammation, also referred to as neurogenic inflammation, is a type of inflammation triggered by sensory nerve activation in skin. Certain natural substances that act on vanilloid receptors cause sensory nerves (C-fibers) to release inflammatory neuropeptides. In mouse skin, an edema response occurs rapidly upon application of a vanilloid receptor activator, such as capsaicin or resiniferatoxin (RTX).
Albino male CD-1 mice, 7-9 weeks old, were used. […] A 20-μL volume of Resiniferatoxin (0.05%) prepared in acetone was applied to the left ears (7 mice per treatment group). The right ear was not treated. Test agents were prepared in a 70% ethanol/30% propylene glycol vehicle and applied to the left ear (20 μL) immediately after resiniferatoxin challenge. The percent inhibition was calculated by comparing treatments to resiniferatoxin alone. Anti-neurogenic inflammation effects of compounds are evident as an inhibition of the increase in ear weight.

Assay [2] relates to Albino male CD-1 mice (scratching induced by Compound 48/80). Briefly: Scratching against Compound 48/80 in mice. It is filed as in vivo. The note with it: for effect on Compound 48/80 scratching, in words: text summary of Tables 1 and 8. The method, then: Albino male CD-1 mice, 7-9 weeks old, were used. Testing was based on known methods (See Liebel et al., Arch Dermatol Res. 298:191-199, 2006.) Test agents were prepared at concentrations noted in Table 1 in 100% ethanol and 50 μL was applied topically to the shaved dorsal skin 30 minutes prior to induction of scratching (8 mice per treatment group). Compound 48/80 (50 μg/50 μL: w/v) was then injected inter-dermal to the dorsal area and scratches were then counted for 30 minutes.
Albino male CD-1 mice, 7-9 weeks old, were used. Testing was based on known methods (See Liebel et al., Arch Dermatol Res. 298:191-199, 2006.) Test agents were prepared in 100% ethanol and 50 uL was applied topically to the shaved dorsal skin 30 minutes prior to induction of scratching (8 mice per treatment group). Compound 48/80 (50 ug/50 uL w/v) was then injected inter-dermal to the dorsal area and scratches were then counted for 30 minutes.

[3] abbreviates: Table 8, topical dose 1 % w/v in 100% ethanol, 50 uL, 30 minutes prior to Compound 48/80.
Where [4] appears, read: Table 2, topical dose 0.5 % w/v in 70% ethanol/30% propylene glycol, 20 μL to ear immediately after resiniferatoxin.

In the case of `[Ca+2].[Cl-].[Cl-]` [Calcium Chloride, reference compound], the “% Inhibition of the Ear Edema” value in assay [1] (Table 3, topical dose 1 % w/v) is on record as −3.24%. For the compound `O=C([O-])[O-].[K+].[K+]` [Potassium Carbonate], the “% Inhibition of the Ear Edema” value in assay [1] (Table 4, topical dose 0.283 % w/v) is listed as 4.52%. Turning to `[Cl-].[Na+]` [Sodium Chloride, reference compound], the “% Inhibition of the Ear Edema” value in assay [1] (Table 3, topical dose 1 % w/v) is recorded as 7.06%. For `CC(N/C(=N\C#N)Nc1ccncc1)C(C)(C)C` (stereo not drawn) [Pinacidil, reference compound], the “% Inhibition of Scratching” value in assay [2] (setting [3]) came out at 17.03%. As to `CCN(CC)CC(=O)Nc1c(C)cccc1C` [Lidocaine, reference compound], in assay [1] (setting [4]), the “% Inhibition of the Ear Edema” value is recorded as 28.7%.

Take `CC(=O)[O-].[K+]` [Potassium Acetate]: in assay [1] (Table 4, topical dose 0.398 % w/v), the “% Inhibition of the Ear Edema” value is −2.89%.

`Nc1cc(N2CCCCC2)nc(N)[n+]1[O-]` [Minoxidil, reference compound]: the “% Inhibition of Scratching” value in assay [2] (setting [3]) stood at 8.42%. In the case of `[Cl-].[K+]` [Potassium Chloride], the “% Inhibition of the Ear Edema” value in assay [1] (Table 3, topical dose 0.524 % w/v) is 9.98%; in assay [1] (Table 4, topical dose 0.524 % w/v) it was 9.98%.

Turning to `CC(C)NCCN(CCNC(C)C)CCNC(C)C` [Tris[2-(isopropylamino)ethylamine], in assay [1] (setting [4]), the “% Inhibition of the Ear Edema” value was determined as 13.62%. Moreover, the “inhibition of the neurogenic inflammatory response to resiniferatoxin, in words” value (shortened to “inhibition … in words”) in assay [1] is listed as “failed to significantly inhibit”. Take `CC(O)CN(CCN(CC(C)O)CC(C)O)CC(C)O` (stereo not drawn) [Tetrahydroxypropyl ethylenediamine, N,N,N′,N′-Tetrakis(2-hydroxypropyl)ethylenediamine]: the “% Inhibition of Scratching” value in assay [2] (Table 1, topical dose 1 % w/v in 100% ethanol, 50 μL on shaved dorsal skin 30 minutes prior to Compound 48/80, scratches counted for 30 minutes) came to 9.39%; in assay [2] (setting [3]) it was 9.39%. Moreover, the “effect on Compound 48/80 scratching, in words” value in assay [2] is on record as “very weak to no inhibition”. Besides, in assay [1] (Table 2, topical dose 1 % w/v, 20 μL to ear immediately after resiniferatoxin), the “% Inhibition of the Ear Edema” value was determined as 4.04%. The “inhibition … in words” value in assay [1] is “failed to significantly inhibit”.

For the compound `CC(O)C(=O)[O-].[K+]` (stereo not drawn) [Potassium Lactate], the “% Inhibition of Scratching” value in assay [2] (Table 1, topical dose 0.206 % w/v in 100% ethanol, 50 μL, 30 minutes prior to Compound 48/80) is listed as −8.84%. Further, the “effect on Compound 48/80 scratching, in words” value in assay [2] is “very weak to no inhibition”. Besides, the “% Inhibition of the Ear Edema” value in assay [1] (Table 2, topical dose 0.206 % w/v, 20 μL to ear immediately after resiniferatoxin) was 13.52%; in assay [1] (Table 4, topical dose 0.206 % w/v), 13.52%. Besides, the “inhibition … in words” value in assay [1] is “failed to significantly inhibit”.
